Assay results reported in US7795240B1, “Nonreducing beta-glucan derivative” (Asahi Kasei Chemicals Corporation, priority 2003, dated 2010).

Assays:
Assay type in all cases: physicochemical
[1] = storage stability test of an equivalent mixture with L-arginine (degree of whiteness, coloration); details: for appearance (color) after storage / decrease ratio in degree of whiteness: 40° C., 2 weeks; for appearance (color) after storage / decrease ratio in degree of whiteness / degree of whiteness after the test: 75% RH, airtight; for degree of whiteness after the test: after 2 weeks at 40° C.; for degree of whiteness at the onset: at onset/initiation of the storage test
Source text: In a β-glucan derivative according to the present invention, a non-reducing end needs not to be bound to all reducing ends. A non-reducing end may be bound to reducing ends to the extent that an active ingredient such as a medicament or the like having an amino group is stably present. The conversion rate of a reducing end of the β-glucan into a non-reducing end is preferably 0.1 mol % or more. Whether an active ingredient is present in a stable state can be readily checked by an observation based on degree of coloration in a storage stability test in a condition that is performed by mixing an active ingredient and a β-glucan derivative in equivalent amounts and stored the mixture at 40° C. under 75%. Since it has a reducing end, β-glucan is known to initiate the Maillard reaction with an active ingredient having a terminal amino group to form an amino-carbonyl bond and produce color. However, a β-glucan derivative according to the present invention has an advantageous effect in that since the reducing end is inactivated by a non-reducing sugar, no coloring reaction takes place. The effect of the present invention is particularly effective for an active ingredient having a primary amine.
Whether fructose was bound was confirmed based on an increase of a peak in a mass spectrum and a storage stability test of an equivalent mixture of the obtained transglucosylated product and L-arginine contained at 40° C. and 75% RH, airtight for 2 weeks. A decrease ratio in degree of whiteness was 2% (it was 99% at the onset and 97% after the test).

[2] = hardness of molded cylindrical product (Schleuniger hardness tester type 6D)
Protocol: (§1) The hardness of the molded cylindrical product thus obtained was measured by a Schleuniger hardness tester type 6D (Trademark, manufactured by FREUND Corporation). More specifically, a load pressure was applied to the molded cylindrical product or a tablet in the direction of the diameter to break it. The weight at the moment was measured. The hardness was represented by an average value of 10 samples. Furthermore, the disintegration time of the molded cylindrical product was determined in accordance with a general test method, a disintegration test method for tablets specified in the Japanese Pharmacopeia, 14th revision, by use of a disintegration tester (Toyama Sangyo Co., Ltd., Trade name: NT-40HS type with a disk), at 37° C. in pure water. The disintegration time was represented by an average of 6 tablets

[3] = disintegration time of molded cylindrical product (Japanese Pharmacopeia disintegration test); details: 37° C., pure water
Protocol: as §1

Substance | appearance (color) after storage [1] | decrease ratio in degree of whiteness [1] [%] | degree of whiteness after the test [1] [%] | degree of whiteness at the onset [1] [%] | hardness of the molded cylindrical product ([2]; compression pressure 35 kN) [N] | disintegration time of the molded cylindrical product ([3]; compression pressure 35 kN) [s] | hardness of the molded cylindrical product ([2]; compressed at 25 kN, φ8 mm, average of 10 samples) [N] | disintegration time of the molded cylindrical product ([3]; compressed at 25 kN, with disk, average of 6) [s]
transglucosylated cellobiose [Comparative Example 2] | White color in appearance was maintained | 3 | 96 | 99 | 80 | 300 | – | –
transglucosylated cellotriose [Example 1] | White color in appearance was maintained | 2 | 97 | 99 | – | – | 70 | 58
